The values that follow come from patent US8420606B2, “Method of utilizing physiological activity of rare saccharide and composition containing rare saccharide” (priority 2002, dated 2013).

Entries after “also recorded” stand apart in the source; their conditions may differ.

The test system of assay [1] is Rat leukocyte (granulocyte). The experiment in a line: production of active oxygen from leukocyte, LO12 chemiluminescence, zymosan. The assay is classed as cell-based. To be noted: for production of active oxygen from leukocyte: saccharide 10 mM added to the producing system, zymosan. On the procedure: Influences of various kinds of rare saccharides upon production of active oxygen from leukocyte were examined under the conditions given below. In this Example 5, an effect against the production of active oxygen from leukocyte was examined with LO12 chemiluminescence.
(1) Target leukocyte to which the rare saccharides were added: Rat leukocyte (granulocyte) was used.
(2) Rare saccharides added: In addition to D-allose as a rare saccharide belonging to aldose, D-psicose and D-altros as rare saccharides belonging to ketose and D-tallitol belong to polyol were added as other comparative saccharides. Further, D-glucose and D-fructose were employed as saccharides abundant in the natural world.
(3) Experiment method: (1) Changes over time in production of active oxygen from rat leukocyte . . . The time-dependent progress in production of active oxygen caused by adding zymosan particles to rat leukocyte (granulocyte) was examined. Also, the time-dependent progress in production of active oxygen caused under the presence of each of the rare saccharides was examined.
(2) Influences of rare saccharides upon production of active oxygen . . . By adding the various saccharides to the system for producing active oxygen from leukocyte, the amount of produced active oxygen was measured for each saccharide. The concentration of each of the added rare saccharides was set to 10 mM. Also, the measurement was made under the condition without addition of any saccharides.
(3) Effect of rare saccharides upon production of active oxygen . . . The rare saccharides were each added at concentration of 10 mM after the start of phagocytosis and the start of the production of active oxygen subsequent to addition of zymosan to leukocyte.
(4) Concentration dependency of active-oxygen production inhibitory effect of D-allose . . . Concentration dependency of the active-oxygen production inhibitory effect of D-allose was examined. D-allose was added at concentration of 0 mM, 5 mM and 10 mM.

Assay [2] has as its system CINC-1 mRNA. The experiment in a line: rat renal ischemia-reperfusion, northern blotting. The class given is in vivo. To be noted: 400 mg/kg into the vein 30 minutes before clamping, 45 minutes ischemia, reperfusion for 2 hours, preliminary. How it is done:
Target . . . Male rat with weight of about 300 g. Experiment method . . . The renal ischemia model was prepared after putting the rat under anesthesia with Nembutal. Renal ischemia . . . After picking up the right kidney, the left renal blood vessel was clamped for 45 minutes. Drugs used . . . D-allose and D-psicose (400 mg/kg per drug) were administrated into the vein 30 minutes before clamping for renal ischemia. Measurement item . . . An influence of each drug upon appearance of a trouble factor, i.e., […] neutrophil chemoattractant (CINC)-1 mRNA, was measured (after reperfusion for 2 hours).

A short description of assay [3]: rat blood-sugar value after intravenous saccharide under anesthesia. To be noted: for blood sugar value: 200 mg/kg BW intravenous, normal rats under anesthesia, fasted. The class given is in vivo. On the procedure:
(2) Method: 1) Administration of rare saccharide: An SD male rat (with weight of about 300 g) was employed in an experiment after fasting for 20 to 24 hours. Nembutal (58 mg/kg B.W) was applied to the rat through abdominal administration, and after cutting the neck under anesthesia, a silicon tube was fixedly kept inserted in the jugular vein. A 1-ml syringe was connected to the silicon tube for administration of the rare saccharide. 2) Blood-collecting: Blood was collected by using the 1-ml syringe through the silicon tube inserted in the jugular vein. The blood-collecting was made immediately before the administration of the rare saccharide and then after 5, 10, 15, 20, 25, 30, 60, 120, 180 and 240 minutes from the same. 3) Blood sugar measurement: The blood sugar value in the collected blood was measured by using Antosense II (made by Bayer Medical).

The target of assay [4] is human albumin (Homo sapiens, UniProt P02768). The experiment in a line: saccharification (glycation) of albumin, glycoalbumin reagent. The class given is biochemical. To be noted: albumin 3 g/dl. How it is done: (2) Method: After fragmenting albumin into amino acids by using protease K, i.e., glycoalbumin (GA) measurement reagent (made by Oriental Yeast Co., Ltd.), glycolysine was measured by using ketoamine oxydase (see FIG. 38). Glycation of human albumin with various rare saccharides was examined. A sample was prepared through the steps of dissolving 3 g/dl of pure human albumin in PBS and then dissolving each of the rare saccharides so as to prepare a solution in final concentration of 55.5 mM. The prepared solution was filtrated with a filter of 0.25 μm mesh and sterilized, followed by incubation at 37° C. for 7 days. During the incubation, the GA concentration (glycolysine concentration) was measured at intervals of exactly 24 hours. Further, similar experiments were conducted by adding each of the rare saccharides in an albumin solution (final concentration 3 g/dl) and a glucose solution (final concentration 55.5 mM) so that each of the rare saccharides had final concentration of 55.5 mM.
Chain of human albumin (P02768 25-609): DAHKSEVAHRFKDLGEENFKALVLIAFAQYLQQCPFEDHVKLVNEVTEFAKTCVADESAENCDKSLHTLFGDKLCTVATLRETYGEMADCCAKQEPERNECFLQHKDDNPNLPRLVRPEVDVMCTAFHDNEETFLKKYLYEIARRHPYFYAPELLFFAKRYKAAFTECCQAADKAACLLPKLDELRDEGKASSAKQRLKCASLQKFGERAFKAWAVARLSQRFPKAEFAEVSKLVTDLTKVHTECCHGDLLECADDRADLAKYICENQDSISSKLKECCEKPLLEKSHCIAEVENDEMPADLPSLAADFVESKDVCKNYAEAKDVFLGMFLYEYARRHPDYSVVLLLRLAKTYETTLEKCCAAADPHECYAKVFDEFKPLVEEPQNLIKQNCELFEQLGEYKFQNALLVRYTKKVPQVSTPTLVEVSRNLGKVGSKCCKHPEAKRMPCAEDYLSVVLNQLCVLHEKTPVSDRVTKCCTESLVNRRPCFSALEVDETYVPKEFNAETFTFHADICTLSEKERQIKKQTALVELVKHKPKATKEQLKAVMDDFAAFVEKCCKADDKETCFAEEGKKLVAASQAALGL

Where [5] appears, read: saccharide 55.5 mM + D-glucose 55.5 mM.
The mark [6] stands for this setting: saccharide 55.5 mM, 37° C., 7 days.

For the molecule `O=C[C@H](O)[C@H](O)[C@H](O)[C@H](O)CO` [D-allose], the “effective concentration for active-oxygen production inhibition” value in assay [1] (0, 5 and 10 mM tested) is reported as “approximately 10 mM”. Further, the “production of active oxygen, saccharide added after start of production” value in assay [1] (10 mM added after start of phagocytosis and of active oxygen production) was “the inhibitory effect was found”. Further, the “active-oxygen production inhibitory effect” value in assay [1] (D-allose 5 mM) was “did not appear”. The inhibition at 10000 µM in assay [1] (Rattus norvegicus, Leukocyte, D-allose 10 mM, read-out: active-oxygen production inhibitory effect) was not below 50%. In addition, in assay [1], the “production of active oxygen from leukocyte” value (“production … from leukocyte” below) was “inhibited; also recorded: has an effect of inhibiting production of active oxygen; also recorded: very strong effect of inhibiting the production of active oxygen”. Besides, the “appearance rate of CINC-1 mRNA” value is on record as “suppressed” in assay [2] and “reduced” in assay [2] (listed as allose). For the same molecule, in assay [3], the blood sugar value result is “no hypoglycemic was found”. Further, the “saccharification rate of albumin under coexistence with glucose” value in assay [4] (setting [5]) is given as “about 140 μmol/day”. Moreover, the “saccharification rate of albumin” value in assay [4] (setting [6]) is recorded as “about 90 μmol/day”.
Turning to `O=C[C@H](O)[C@@H](O)[C@H](O)[C@H](O)CO` [D-glucose, reference compound], in assay [1], the “production … from leukocyte” value is listed as “No inhibitory effect”. Moreover, the blood sugar value result in assay [3] is recorded as “temporarily increased”. For the same molecule, the “time until blood sugar value approached a normal value” in assay [3] (D-glucose 200 mg/kg BW intravenous) was “about 60 minutes”. Besides, the “saccharification rate of albumin” value in assay [4] (setting [6]) is on record as “about 50 μmol/day”.
In the case of `O=C(CO)[C@H](O)[C@H](O)[C@H](O)CO` [D-psicose], the “production … from leukocyte” value in assay [1] was “No inhibitory effect”. Further, the “appearance rate of CINC-1 mRNA” value is “suppressed” in assay [2] and “reduced” in assay [2] (listed as psicose). In addition, the blood sugar value entry in assay [3] is listed as “light hypoglycemic”; in assay [3] (listed as Psicose), “reduced during a period of 30 to 60 minutes”. Moreover, in assay [4] (setting [5]), the “effect of inhibiting glycation under coexistence with glucose” value is “not found”. Moreover, the “glycation (saccharification) of albumin” value in assay [4] (setting [6]) is on record as “not found; also recorded: does not promote saccharification of albumin”.
